Results reported in patent US20040198663A1, “Method of treating cardiac ischemia by using erythropoietin” (priority 2003, published 2004).

Assays:
[1] = system: hearts from chronically hypoxic infant rabbits; parameters: species or system New Zealand White rabbit
Source text: Animals. Rabbits used in the study received humane care in compliance with the “Guide for the Care and Use of Laboratory Animals” formulated by the National Research Council, 1996. Infant New Zealand White rabbits were maintained for 10 days in a normoxic (SaO2>95%) or hypoxic (SaO2<85%) environment as described in Baker et al., Circulation 99:1249-54 (1999).
Isolated heart perfusion. Isolated rabbit hearts were perfused with bicarbonate buffer at constant pressure in a retrograde manner and instrumented as described in Baker et al., Circulation 99:1249-54 (1999). Protein kinase inhibitors, potassium channel blockers or nitric oxide synthase inhibitors were added to this perfusate as needed. A 3-way tap, located immediately above the site of cannulation, allowed the entire perfusate to be diverted away from the heart to produce global, no-flow ischemia. Reperfusion was achieved by repositioning of the tap to allow perfusate to be delivered to the heart. Left and right ventricular function was monitored continuously throughout each experiment as described in Baker et al., Circulation 99:1249-54 (1999). End-diastolic pressure was initially set to 3 mmHg for 2 minutes. The balloons were then progressively inflated with a microsyringe to set end-diastolic pressures to 8 mmHg for the left ventricle and 4 mmHg for the right ventricle, with developed pressure and heart rate recorded during steady-state conditions. Coronary flow rate was measured throughout the experiment by timed collections of the coronary effluent from the right side of the heart into a graduated cylinder. Coronary flow rate was expressed as milliliters per minute per gram wet weight.
Resistance to myocardial ischemia. Hearts from infant rabbits were perfused with bicarbonate buffer, and biventricular function was monitored continuously throughout each experiment as described in Rafiee et al., Circulation 106:239-45 (2002). For concentration response studies, hearts were then perfused with erythropoietin (0.5-10.0 U/ml) for 15 minutes prior to 30 minutes ischemia and 35 minutes reperfusion. For mechanism studies with protein kinase inhibitors, potassium channel blockers or nitric oxide synthase inhibitors, hearts were perfused with drugs for 15 minutes alone followed by 15 minutes in combination with erythropoietin prior to ischemia. Hearts perfused with protein kinase inhibitors or potassium channel blockers alone in the absence of erythropoietin for 30 minutes prior to ischemia served as untreated controls for these studies. Recovery of post-ischemic left and right ventricular developed pressure was expressed as a percentage of its pre-drug, pre-ischemic value.
Hearts from 10 day old chronically hypoxic rabbits were treated with erythropoietin at a concentration of 1.0 U/ml.

PKCε = experiment: Western analysis of cytosolic and particulate fractions of erythropoietin-treated hearts; parameters: species or system rabbit; details: erythropoietin 1.0 U/ml
Procedure: Western analysis. Hearts from infant rabbits were isolated and aerobically perfused with bicarbonate buffer for 30 minutes at constant pressure, then perfused with erythropoietin for 5 or 15 minutes. The free wall of the left ventricle was excised and immediately freeze-clamped between stainless steel tongs pre-cooled with liquid nitrogen. Frozen myocardial tissue samples were powdered in a pre-cooled stainless steel mortar and pestle.
The powdered tissue was then processed to obtain cytosolic and particulate fractions for Western analysis, as described in Raflee et al., Circulation 106:239-45 (2002). Powdered tissue was homogenized in sample buffer (50 mM Tris pH 7.5, 5 mM EDTA, 10 mM EGTA, 10 mM benzamidine, 10 μg/ml pepstatin A, 50 μg/ml PMSE, 10 μg/ml aprotinin, 10 μg/ml leupeptin, and 0.3% β-mercaptoenthanol) on ice for 50 strokes. Nuclei and cellular debris was removed by centrifugation (1000 g at. 4° C. for 15 min). The supernatant was transferred to a new cold 1.5 mL microcentrifuge tube. The cytosolic and particulate portions of total cellular proteins were separated by a 30-minute centrifugation at 45000 g. Protein concentrations were determined by the method of Bradford. Equal amounts of protein were analyzed by SDS-PAGE and Western blotting by using either isoform-specific antibodies for phospho-PKC detection or specific antibodies against phosphorylated and non-phosphorylated p38 MAPK, JNK, and p42/44 MAPK. The blots were developed by ECL. Densitometry was performed on each sample and analyzed with the use of NIH image software. Rafiee et al., Circulation 106:239-45 (2002).
Cytosolic and particulate fractions from erythropoietin-treated and untreated hearts were prepared. Protein content for PKCε, p38 MAP kinase, p42/44 MAP kinase and JUN kinase was determined by SDS-PAGE and Western blot analysis using monoclonal antibodies specific for PKCε, phosphorylated p38 MAP kinase (Thr180/Tyr182), p42/44 MAP kinase (Thr202/Tyr204), and JUN kinase (Thr183/Tyr185). Non-phosphorylated antibodies were used to ensure equal loading of proteins.

[2] = system: adult male Sprague Dawley rat hearts; experiment: Coronary artery ligation model, isolated perfused heart, 30 min regional ischemia and 3 hours reperfusion; details: erythropoietin 1.0 U/ml 15 minutes prior to regional ischemia, vs control
Source text: Animals used in this study were adult male Sprague Dawley rats (200-350 g, generally 300 g). Animals were housed under standard conditions and allowed to feed ad lib. The Animal Care and Use Committee of the Medical College of Wisconsin approved all procedures performed in accordance with the regulations adopted by the National Institutes of Health.
A myocardial infarction was produced via the ligation of the left main artery using 6-0 prolene suture (See, e.g., Clements-Jewery et al., Br J Pharmacol. 135:807-815, 2002; Farkas et al., J Cardiovasc Pharmacol. 39,412-424, 2002). Rats were anesthetized with sodium pentobarbital (50 mg/kg i.p.). Heparin was then administered (150 U/kg i.p.) to prevent the formation of a thrombus in the coronary vasculature. The heart was then excised and perfused retrogradely with bicarbonate buffer at a pressure of 80 mmHg. (See e.g., Baker et al., Am J Physiol 278, H1395-H1400, 2000). The perfusate was not recirculated. […]
The heart was sectioned in 2 mm segments from apex to atrio-ventricular groove in a transverse fashion. Each segment was recorded and placed in formalin. […] The percentage of infarction of each slide was expressed as a percentage of the entire area of the heart.

[3] = chronically hypoxic hearts, EPO 1.0 U/ml for 15 min
[4] = chronically hypoxic hearts, EPO 1.0 U/ml, after 30 min ischemia

With “erythropoietin: Recombinant human erythropoietin, a glycoprotein hormone, obtained from Cell Science, Inc.” the “adverse effect on ischemic myocardium” value [1] was “did not appear to exert any adverse effect”, the “POST DRUG Coronary flow rate” value [1, 3] was 5 ± 1 mL/min/g and the “POST DRUG Heart rate” value [1, 3] was 181 ± 16 beats/min. The “POST DRUG Left ventricle developed pressure” value [1, 3] was 117 ± 15 mmHg, the “POST DRUG Right ventricle developed pressure” value [1, 3] was 46 ± 8 mmHg and the “REPERFUSION (35 min) Coronary flow rate” value [1, 4] was 6 ± 2 mL/min/g. For the same substance, the “REPERFUSION (35 min) Heart rate” value [1, 4] was 204 ± 25 beats/min, the “REPERFUSION (35 min) Left ventricle developed pressure” value [1, 4] was 77 ± 7 mmHg and the “REPERFUSION (35 min) Right ventricle developed pressure” value [1, 4] was 42 ± 6 mmHg. For the same substance, the “treatment time at which phosphorylation of PKCε was maximal” value (PKCε) was 15 min, the “PKCε activation and translocation” value (PKCε; 5 or 15 minutes) was “activated and translocated from the cytosolic to the particulate fraction” and the myocardial infarct size [2] was “decrease in myocardial infarct size”.
